According to DBAASP:
In brackets after ≈: the same amount, converted by molar mass. Several values for one entry are separate records, joined by “and”; a condition that tells them apart may be missing. Equal entries are not always repeated.

Assays:
Experiment in all cases: ≥ marks a high value that may be exact or a test limit, other limits are often not marked, values filed in µg/mL are converted to µM
Staphylococcus aureus = test system: Staphylococcus aureus
Enterococcus faecium = test system: Enterococcus faecium
[1] = test system: Enterococcus faecalis ATCC 29212
[2] = test system: Enterococcus casseliflavus
[3] = test system: Salmonella typhimurium KCTC 2370
[4] = test system: Saccharomyces cerevisiae ATCC 44774
[5] = test system: Bacillus subtilis KCTC 3038
Enterococcus gallinarum = test system: Enterococcus gallinarum
Escherichia coli DL7 = test system: Escherichia coli DL7
[6] = test system: Klebsiella aerogenes ATCC 13048
[7] = test system: Staphylococcus epidermidis ATCC 12228
Bacillus subtilis PS832 = test system: Bacillus subtilis PS832
[8] = test system: Staphylococcus aureus ATCC 33591
[9] = test system: Klebsiella pneumoniae ATCC 700603
[10] = test system: Staphylococcus aureus ATCC 700699
[11] = test system: Pseudomonas aeruginosa ATCC 27853
[12] = test system: Staphylococcus aureus ATCC 29213
[13] = test system: Escherichia coli ATCC 25922
[14] = test system: Escherichia coli KCTC 1682
[15] = test system: Escherichia coli KCTC 2593
[16] = test system: Salmonella typhimurium CCARM 8003
[17] = test system: Salmonella typhimurium KCTC 1926
[18] = test system: Acinetobacter baumannii CCARM 12036
[19] = test system: Staphylococcus aureus KCTC 3881
[20] = test system: Bacillus subtilis KCTC 3068
[21] = test system: Staphylococcus aureus CCARM 3114
[22] = test system: Pseudomonas aeruginosa CCARM 2003
[23] = test system: Acinetobacter baumannii CCARM 12037
[24] = test system: Staphylococcus aureus CCARM 3108
[25] = test system: Pseudomonas aeruginosa KCTC 2513
[26] = test system: Pseudomonas aeruginosa KCTC 2004
[27] = test system: Bacillus subtilis KCTC 1021
[28] = test system: Escherichia coli KCTC 2571
[29] = test system: Pseudomonas aeruginosa CCARM 2163
[30] = test system: Salmonella typhimurium CCARM 8007
[31] = test system: Staphylococcus epidermidis KCTC 1917
[32] = test system: Staphylococcus aureus KCTC 1916
[33] = test system: Staphylococcus aureus CCARM 3089
[34] = test system: Pseudomonas aeruginosa CCARM 2002
[35] = test system: Staphylococcus aureus KCTC 1621
[36] = test system: Bacillus subtilis KCTC 1022
[37] = test system: Salmonella typhimurium CCARM 8009
[38] = test system: Escherichia coli CCARM 1229
[39] = test system: Escherichia coli CCARM 1238
[40] = test system: Staphylococcus aureus CCARM 3090
[41] = test system: Pseudomonas aeruginosa KCTC 1637
[42] = test system: Acinetobacter baumannii CCARM 12035
[43] = test system: Pseudomonas aeruginosa CCARM 2095
[44] = test system: Acinetobacter baumannii CCARM 12005
[45] = test system: Staphylococcus aureus CCARM 3126

Structure (SMILES): CC[C@H](C)[C@H](NC(=O)[C@H](CCCCN)NC(=O)[C@H](CCC(N)=O)NC(=O)[C@H](CCCCN)NC(=O)[C@@H](NC(=O)[C@@H](NC(=O)[C@H](CCC(N)=O)NC(=O)[C@@H](NC(=O)[C@@H](NC(=O)[C@@H]1CCCN1C(=O)[C@H](CCCN=C(N)N)NC(=O)[C@@H](NC(=O)[C@@H](NC(=O)[C@@H](N)CCCN=C(N)N)[C@@H](C)CC)[C@@H](C)CC)[C@@H](C)CC)[C@@H](C)CC)[C@@H](C)CC)[C@@H](C)CC)C(=O)N[C@@H](CCCN=C(N)N)C(=O)O [RIIRPIIQIIKQKIR]
- MIC (Staphylococcus aureus): 1.5 µM (≈ 2.83 µg/mL)
- MIC (Enterococcus faecium): 1.06 µM (≈ 2 µg/mL)
- MIC [1]: 1.06 µM (≈ 2 µg/mL)
- MIC [2]: 1.06 µM (≈ 2 µg/mL)
- MIC [3]: 2.12 µM (≈ 4 µg/mL)
- MIC [4]: 2.12 µM (≈ 4 µg/mL)
- MIC [5]: 1.06 µM (≈ 2 µg/mL)
- MIC (Enterococcus gallinarum): 1.06 µM (≈ 2 µg/mL)

Structure (SMILES): CC(C)C[C@H](NC(=O)[C@H](CCCCN)NC(=O)[C@H](C)NC(=O)[C@H](CC(C)C)NC(=O)[C@H](CCCCN)NC(=O)[C@H](CCCCN)NC(=O)[C@H](C)NC(=O)[C@H](CC(C)C)NC(=O)[C@H](CCCCN)NC(=O)[C@H](C)NC(=O)[C@H](CC(C)C)NC(=O)[C@H](CCCCN)NC(=O)[C@H](Cc1cnc[nH]1)NC(=O)CNC(=O)CN)C(=O)N[C@@H](C)C(=O)N[C@@H](CCCCN)C(N)=O [GGHKLAKLAKKLAKLAK]
- MIC (Escherichia coli DL7): 0.125 µM and 0.06 µM
- MIC [6]: ≥ 32 µM
- MIC [7]: 1 µM (≈ 1.77 µg/mL)
- MIC (Bacillus subtilis PS832): 0.125 µM and 0.06 µM

Structure (SMILES): CC[C@H](C)[C@H](NC(=O)[C@H](CC(=O)O)NC(=O)[C@H](CCCCN)NC(=O)[C@H](C)NC(=O)[C@H](C)NC(=O)CNC(=O)[C@H](CCCCN)NC(=O)[C@H](CC(C)C)NC(=O)[C@@H](NC(=O)[C@H](CC(=O)O)NC(=O)[C@@H](NC(=O)[C@@H](NC(=O)CN)C(C)C)C(C)C)[C@@H](C)CC)C(=O)N[C@@H](C)C(=O)NCC(=O)N[C@@H](Cc1cnc[nH]1)C(=O)N[C@@H](CC(C)C)C(=O)N[C@@H](C)C(=O)N[C@@H](CO)C(=O)N[C@@H](CCCCN)C(=O)N[C@H](C(=O)N[C@@H](CCSC)C(=O)N[C@@H](CC(N)=O)C(=O)N[C@@H](C)C(=O)N[C@@H](CC(C)C)C(N)=O)C(C)C [GVVDILKGAAKDIAGHLASKVMNAL]
- MIC [8]: ≥ 100 µM
- MIC [9]: > 100 µM
- MIC [10]: ≥ 100 µM
- MIC [11]: > 100 µM
- MIC [12]: > 100 µM
- MIC [13]: 100 µM (≈ 249 µg/mL)

Structure (SMILES): CC[C@H](C)[C@H](NC(=O)CNC(=O)[C@H](CCCN=C(N)N)NC(=O)[C@H](CCCCN)NC(=O)[C@@H](NC(=O)[C@H](Cc1cnc[nH]1)NC(=O)[C@H](Cc1cnc[nH]1)NC(=O)[C@H](Cc1ccccc1)NC(=O)[C@@H](N)Cc1ccccc1)[C@@H](C)CC)C(=O)N[C@H](C(=O)N[C@@H](Cc1cnc[nH]1)C(=O)N[C@H](C(=O)NCC(=O)N[C@@H](CCCCN)C(=O)N[C@H](C(=O)N[C@H](C(=O)N[C@@H](Cc1cnc[nH]1)C(=O)N[C@@H](CCCN=C(N)N)C(=O)N[C@@H](CC(C)C)C(=O)N[C@H](C(=O)N[C@H](C(=O)NCC(=O)O)[C@@H](C)O)C(C)C)[C@@H](C)CC)[C@@H](C)O)C(C)C)C(C)C [FFHHIKRGIVHVGKTIHRLVTG]
- MIC [14]: 4 µM (≈ 10.2 µg/mL)
- MIC [15]: 2 µM (≈ 5.11 µg/mL)
- MIC [16]: 16 µM (≈ 40.8 µg/mL)
- MIC [17]: 8 µM (≈ 20.4 µg/mL)
- MIC [18]: 4 µM (≈ 10.2 µg/mL)
- MIC [19]: 4 µM (≈ 10.2 µg/mL)
- MIC [20]: 4 µM (≈ 10.2 µg/mL)
- MIC [21]: 16 µM (≈ 40.8 µg/mL)
- MIC [22]: 4 µM (≈ 10.2 µg/mL)
- MIC [23]: 4 µM (≈ 10.2 µg/mL)
- MIC [24]: 16 µM (≈ 40.8 µg/mL)
- MIC [25]: 8 µM (≈ 20.4 µg/mL)
- MIC [26]: 8 µM (≈ 20.4 µg/mL)
- MIC [27]: 4 µM (≈ 10.2 µg/mL)
- MIC [28]: 4 µM (≈ 10.2 µg/mL)
- MIC [29]: 4 µM (≈ 10.2 µg/mL)
- MIC [30]: 16 µM (≈ 40.8 µg/mL)
- MIC [31]: 2 µM (≈ 5.11 µg/mL)
- MIC [32]: 4 µM (≈ 10.2 µg/mL)
- MIC [33]: 16 µM (≈ 40.8 µg/mL)
- MIC [34]: 4 µM (≈ 10.2 µg/mL)
- MIC [35]: 4 µM (≈ 10.2 µg/mL)
- MIC [36]: 1 µM (≈ 2.55 µg/mL)
- MIC [37]: 16 µM (≈ 40.8 µg/mL)
- MIC [38]: 16 µM (≈ 40.8 µg/mL)
- MIC [39]: 16 µM (≈ 40.8 µg/mL)
- MIC [40]: 16 µM (≈ 40.8 µg/mL)
- MIC [41]: 8 µM (≈ 20.4 µg/mL)
- MIC [42]: 4 µM (≈ 10.2 µg/mL)
- MIC [43]: 4 µM (≈ 10.2 µg/mL)
- MIC [44]: 4 µM (≈ 10.2 µg/mL)
- MIC [45]: 16 µM (≈ 40.8 µg/mL)
